Test results from paper PMC6018403 (Frontiers in Pharmacology, 2018).
“Also recorded” adds a separate entry of the source.

How the values were obtained:
db/db mice = assay: Evaluation of anti-diabetic effects in db/db mice; assay type: in vivo; conditions: oral, 4 weeks; for anti-diabetic effects: BER 50 mg/kg/d, GLY 80 mg/kg/d alone, 50 or 80 mg/kg/d with BER
Experimental: Eight-week-old male db/db mice (30–35 g) were used, and the details were described in Supplemental Data. The mice were randomly divided into eight groups. Mice were orally administered with metformin (100 mg/kg/d, n = 6), berberine (50 mg/kg/d, n = 6), glycyrrhizic acid (80 mg/kg/d, n = 6), berberine (50 mg/kg/d) combined with low-dose of glycyrrhizic acid (50 mg/kg/d, n = 6), berberine (50 mg/kg/d) combined with high-dose of glycyrrhizic acid (80 mg/kg/d, n = 6), berberine (50 mg/kg/d) combined with Gan-Cao (2.2 g/kg/d, n = 7), and GQD (18.2 g/kg/d, n = 7) for 4 weeks. For the control group, the […] were administered with an equal volume of water. On day 28, after fasted for 12 h, retro-orbital blood samples were collected, stand for 1 h, and then centrifuged (6,000 rpm, 4°C) for 20 min to obtain serum. Biochemical indicators such as blood glucose and insulin were determined on a Mindray BS-800 analyzer (Mindray Bio-Medical Electronics Co.).
Herbal materials and extracts.
The four component herbs, Puerariae Lobatae Radix (Ge-Gen, GG), Scutellariae Radix (Huang-Qin, HQ), Coptidis Rhizoma (Huang-Lian, HL), and Glycyrrhizae Radix et Rhizoma Praeparata cum Melle (Gan-Cao, GC) were purchased from Tianheng Pharmacy. GQD was prepared by decocting the four component herbs […]
of water for three times (1.5 h, 1.5 h, 0.5 h) to obtain the extracts, followed by a pre-extraction of Ge-Gen using 200 mL of water for 0.5 h. The decoctions were combined, filtered, and concentrated in vacuum at 50 °C. GQD-GC was prepared using the same procedure, except that Gan-Cao was removed from the formula. Final concentration of the GQD-GC extract was equivalent to 1.0 g of the crude drugs per mL. For single herb extracts, the herbs were decocted in 8-fold volume of water for three times (1.5 h, 1.5 h, 0.5 h) and then concentrated. […]
For anti-diabetic study, Eight-week-old male db/db mice (30–35 g) were purchased from Card Vince Laboratory animal Co., Ltd. The mice were bred in a cage (318 × 202 × 135 mm) in a breeding room at 25 °C, 60 ± 5% humidity, and a 12-h dark-light […]
On day 28, db/db mice were fasted for 12 h, and blood was collected and centrifuged to obtain serum for insulin and biochemical tests. After that, 150 µL of plasma was prepared by adding 150 µL of internal standard solution, 150 µL of methanol, and 300 µL of acetonitrile. The processing method was consistent with sample preparation for […]
3.1. Optimization of chromatographic separation
Different solvents (67% methanol, and 100% methanol) were compared to effectively extract both hydrophilic and hydrophobic compounds of GQD. […]
better extraction recovery for most compounds. […]

P-glycoprotein (P-gp) = biological target: T1, P-glycoprotein (P-gp) (Homo sapiens, UniProt P08183); assay: P-gp inhibitor and inducer experiments on Caco-2 cell monolayer; assay type: in vitro ADME; conditions: for interaction with P-gp: Caco-2 cell monolayer
T1 construct: host or cells: Caco-2 (human colon adenocarcinoma) monolayers, passages 24-35
Experimental: The final concentration of GQD, GQD−GC, and Huang-Lian water extracts were 32, 28, and 6 μg/mL, respectively. […]
containing glucose (25 mM) and HEPES (10 mM). The final concentration of berberine was 5 µM. The final concentration of DMSO was below 1% (v/v). […]
inducer of Caco-2 cells, respectively. For the inhibitor experiments, the Caco-2 cells were cultivated in DMEM until the 21st day. After removal of the medium, the cells were incubated for 30 minutes with HBSS containing 5 µM of verapamil. For the inducer experiments, the cells were cultivated in DMEM until the 18th day, and then […]
was removed on the 21st day, and the cells were then incubated for 30 min with HBSS.
Berberine and glycyrrhizic acid were added to the system following HBSS incubation.
For all bidirectional transport assays, samples (300 µL) were collected after 30, 60, 90, […]
with an equal volume of HBSS. The samples were freeze-dried and then dissolved in 300 µL of methanol. The solutions were filtered through 0.22-µm membranes before […]
3. Inhibitor and inducer experiments […]
respectively. For the inhibition experiments, Caco-2 cells were cultivated in DMEM until the 21st day. After removal of the medium, the cells were incubated for 30 minutes with HBSS containing verapamil (5 µM). For induction experiments, the cells were cultivated in DMEM until the 18th day, and then cultivated in DMEM […]
The medium was removed on the 21st day, and the cells were then incubated for 30 min with HBSS. Berberine and glycyrrhizic acid were added to the system following HBSS incubation.

in vivo = assay: in vivo; set-up: species or system Sprague-Dawley rats; conditions: male, Sprague-Dawley, rat, po
Experimental: For the PK study of berberine and glycyrrhizic acid, rats were randomly divided into four groups (n = 8 for each group) before oral administration. Two groups were respectively treated with 59.4 mg/kg of berberine and 84.8 mg/kg of glycyrrhizic acid; the third group was treated with 59.4 mg/kg of berberine and 2.36 g/kg of licorice water decoction (0.5 g/mL); and the last group received 59.4 mg/kg of berberine and 84.8 mg/kg of glycyrrhizic acid. The dosage of single compounds were calculated according to their contents in the administrated GQD extract. Sample collection were the same as described for GQD. […] The plasma samples were stored at −80°C. Samples were prepared for LC/MS/MS analysis as described in our previous study (Qiao et al., [2012]), as described in Supplemental Data. LC/MS/MS calibration and quantitation data were processed with Xcalibur 2.0.7 software (ThermoFisher). The maximal plasma concentrations (Cmax) and their time of occurrence (Tmax) were obtained directly from the measured data. Other pharmacokinetic parameters were calculated by non-compartment or compartment models using WinNonlin® software (v6.1, Pharsight). Unless otherwise stated, results were expressed as the mean ± SD. Statistical significance in differences of the means was determined by Student's t–test, with a significance level of P < 0.05.

T1 sequence (P08183 whole entry): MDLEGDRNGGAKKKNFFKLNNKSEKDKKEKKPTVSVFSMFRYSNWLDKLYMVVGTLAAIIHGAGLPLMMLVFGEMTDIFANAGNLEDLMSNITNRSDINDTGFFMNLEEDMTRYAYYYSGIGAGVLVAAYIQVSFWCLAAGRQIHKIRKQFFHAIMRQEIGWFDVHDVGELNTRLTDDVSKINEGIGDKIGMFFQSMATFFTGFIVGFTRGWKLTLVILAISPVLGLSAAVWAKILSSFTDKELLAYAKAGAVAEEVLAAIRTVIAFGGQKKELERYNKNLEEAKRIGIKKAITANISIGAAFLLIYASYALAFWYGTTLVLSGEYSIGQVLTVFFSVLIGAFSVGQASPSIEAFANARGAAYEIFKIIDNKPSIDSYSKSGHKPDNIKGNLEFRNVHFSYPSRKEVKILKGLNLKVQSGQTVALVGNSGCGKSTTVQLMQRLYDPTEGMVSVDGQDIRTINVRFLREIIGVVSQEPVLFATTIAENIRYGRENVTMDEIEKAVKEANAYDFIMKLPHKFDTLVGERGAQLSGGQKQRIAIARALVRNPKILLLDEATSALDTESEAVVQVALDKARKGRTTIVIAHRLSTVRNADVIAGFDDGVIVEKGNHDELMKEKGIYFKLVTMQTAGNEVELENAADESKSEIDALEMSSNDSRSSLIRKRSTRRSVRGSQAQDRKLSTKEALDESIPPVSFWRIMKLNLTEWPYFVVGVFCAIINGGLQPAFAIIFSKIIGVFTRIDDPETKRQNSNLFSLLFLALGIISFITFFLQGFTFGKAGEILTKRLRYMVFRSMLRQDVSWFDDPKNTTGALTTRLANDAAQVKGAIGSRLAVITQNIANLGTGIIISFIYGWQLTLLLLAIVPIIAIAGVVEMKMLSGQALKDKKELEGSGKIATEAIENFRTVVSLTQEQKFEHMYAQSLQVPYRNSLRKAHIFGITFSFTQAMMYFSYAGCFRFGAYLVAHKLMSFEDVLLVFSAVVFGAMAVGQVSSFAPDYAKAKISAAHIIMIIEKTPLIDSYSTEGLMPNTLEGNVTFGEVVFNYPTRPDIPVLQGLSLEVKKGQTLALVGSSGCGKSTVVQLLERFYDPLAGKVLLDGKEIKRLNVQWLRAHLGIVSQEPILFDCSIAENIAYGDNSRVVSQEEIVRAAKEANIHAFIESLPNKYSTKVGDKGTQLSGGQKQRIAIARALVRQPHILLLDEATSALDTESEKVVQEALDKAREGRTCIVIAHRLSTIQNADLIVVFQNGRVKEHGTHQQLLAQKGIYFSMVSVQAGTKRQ

Row | increase of AUClast of berberine by GLY (in vivo) | Cmax (in vivo; 59.4 mg/kg) | Cmax of berberine (in vivo; 59.4 mg/kg) | T1/2 of berberine (in vivo; 59.4 mg/kg) | half-life (in vivo; 59.4 mg/kg, T1/2 of berberine) | interaction with P-gp (P-glycoprotein (P-gp)) | Compound | anti-diabetic effects (db/db mice; listed as GLY) | interaction with P-gp (P-glycoprotein (P-gp); listed as GLY) | counteraction of the impact of rifampicin on BER transport (P-glycoprotein (P-gp); GLY 5 μM, especially after 150 min treatment) | anti-diabetic effects (db/db mice; listed as BER) | ALT and AST levels (liver damage) (db/db mice; serum)
1 |  |  |  |  |  |  | CC1(C)[C@@H](O[C@H]2O[C@H](C(=O)O)[C@@H](O)[C@H](O)[C@H]2O[C@@H]2O[C@H](C(=O)O)[C@@H](O)[C@H](O)[C@H]2O)CC[C@]2(C)[C@H]3C(=O)C=C4[C@@H]5C[C@@](C)(C(=O)O)CC[C@]5(C)CC[C@@]4(C)[C@]3(C)CC[C@@H]12 [Compound 36, glycyrrhizic acid] | did not show observable anti-diabetic effects | inhibiting P-glycoprotein; also recorded: P-gp inhibitor | could counteract the impact of 5 or 20, but not 50 μM rifampicin |  | 
2 | around 6 folds | 12.2 ± 4.85 ng/mL | 117.12 ± 90.22 ng/mL | 8.47 ± 2.90 h | 7.53 ± 1.65 h | P-gp substrate | COc1ccc2cc3[n+](cc2c1OC)CCc1cc2c(cc1-3)OCO2 [Compound 24, berberine] |  |  |  | confirmed its anti-diabetic activities; also recorded: significant anti-diabetic and hypolipidemic activities | decreasing
